Among the data in patent US8404692B2, “Pyrimidin-4-yl-3, 4-dihydro-2H-pyrrolo [1,2A] pyrazin-1-one compounds” (Cyclacel Limited, priority 2005, dated 2013) are IC50 values, retold here.

The assay deals with T1, aurora-A (human) (Homo sapiens, UniProt O14965).
T1 construct: purchased Upstate, Dundee, UK
T1 sequence (O14965 1-403): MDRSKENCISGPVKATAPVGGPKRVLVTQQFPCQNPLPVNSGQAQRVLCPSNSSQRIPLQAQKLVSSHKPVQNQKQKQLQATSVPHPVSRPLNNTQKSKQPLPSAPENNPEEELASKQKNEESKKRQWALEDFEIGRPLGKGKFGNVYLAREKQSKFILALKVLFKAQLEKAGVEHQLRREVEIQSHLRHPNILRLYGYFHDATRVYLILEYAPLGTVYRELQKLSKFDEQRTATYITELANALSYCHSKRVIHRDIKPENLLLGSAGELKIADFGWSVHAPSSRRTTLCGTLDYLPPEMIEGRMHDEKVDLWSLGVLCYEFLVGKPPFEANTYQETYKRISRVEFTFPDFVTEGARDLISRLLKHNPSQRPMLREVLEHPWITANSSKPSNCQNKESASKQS
Description: Aurora-A (human) kinase assay. The conditions noted are these: read-out: Activity (Aurora A activity, IC50 grading). Format: biochemical. Here is the method:
This was achieved by measurement of incorporation of radioactive phosphate from ATP into Kemptide substrate (LRRASLG), upon phosphorylation by commercially obtained aurora-A (human, Upstate; Dundee, UK). Assays were performed using 96-well plates and appropriate assay buffers (20 mM Tris, 25 mM β-glycerophosphate, 5 mM EGTA, 1 mM DTT, 1 mM sodium vanadate, pH 7.5), into which were added 2-5 ng of active enzyme with 500 μM substrate (Kemptide). The reactions were initiated by addition of MATP mix (15 mM MgCl2+100 μM ATP with 15-25 kBq per well of [γ-^32P]-ATP) and mixtures incubated for 30 min at 30° C. Reactions were stopped by addition of an equal volume of 75 mM aq orthophosphoric acid, followed by filtration through p81 filterplates (Whatman Polyfiltronics, Kent, UK). After washing 4 times with 75 mM aq orthophosphoric acid, plates were dried, scintillant added and incorporated radioactivity measured in a scintillation counter (TopCount, Packard Instruments, Pangbourne, Berks, UK). Compounds for kinase assay were made up as 10 mM stocks in DMSO and diluted into 10% DMSO in assay buffer. Data was analysed using curve-fitting software (XLfit version 4.0.2, IDBS, Guildford, Surrey, UK) to determine IC50 values (concentration of test compound which inhibits kinase activity by 50%).
As to `COc1ccc(Nc2nccc(-c3c(C)c4n(c3C)CCNC4=O)n2)cc1` [Example I-4, 7-[2-(4-Methoxy-phenylamino)-pyrimidin-4-yl]-6,8-dimethyl-3,4-dihydro-2H-pyrrolo[1,2-a]pyrazin-1-one], the IC50 is less than 1 µM.

For the compound `Cc1c(-c2ccnc(Nc3cccc([N+](=O)[O-])c3)n2)c(C)n2c1C(=O)NCC2` [Example I-5, 6,8-Dimethyl-7-[2-(3-nitro-phenylamino)-pyrimidin-4-yl]-3,4-dihydro-2H-pyrrolo[1,2-a]pyrazin-1-one], the IC50 is less than 1 µM.

With `Cc1c(-c2ccnc(Nc3ccc(N(C)C)cc3)n2)c(C)n2c1C(=O)NCC2` [Example I-6, 7-[2-(4-Dimethylamino-phenylamino)-pyrimidin-4-yl]-6,8-dimethyl-3,4-dihydro-2H-pyrrolo[1,2-a]pyrazin-1-one], the IC50 was less than 1 µM.

Take `CC(=O)N1CCN(c2ccc(Nc3nccc(-c4c(C)c5n(c4C)CCNC5=O)n3)cc2)CC1` [Example I-7, 7-{2-[4-(4-Acetyl-piperazin-1-yl)-phenylamino]-pyrimidin-4-yl}-6,8-dimethyl-3,4-dihydro-2H-pyrrolo[1,2-a]pyrazin-1-one]: the concentration for half-maximal inhibition (IC50) was less than 1 µM.

For the compound `CC(=O)N1CCN(c2ccc(Nc3nccc(-c4c(C)c5n(c4C)CCNC5=O)n3)cc2C)CC1` [Example I-8, 7-{2-[4-(4-Acetyl-piperazin-1-yl)-3-methyl-phenylamino]-pyrimidin-4-yl}-6,8-dimethyl-3,4-dihydro-2H-pyrrolo[1,2-a]pyrazin-1-one], the IC50 was less than 1 µM.

In the case of `COc1cc(Nc2nccc(-c3c(C)c4n(c3C)CCNC4=O)n2)ccc1N1CCN(C(C)=O)CC1` [Example I-9, 7-{2-[4-(4-Acetyl-piperazin-1-yl)-3-methoxy-phenylamino]-pyrimidin-4-yl}-6,8-dimethyl-3,4-dihydro-2H-pyrrolo[1,2-a]pyrazin-1-one], the 50% inhibitory concentration (IC50) was less than 1 µM.

In the case of `Cc1c(-c2ccnc(Nc3ccc4cn[nH]c4c3)n2)c(C)n2c1C(=O)NCC2` [Example I-11, 7-[2-(1H-Indazol-6-ylamino)-pyrimidin-4-yl]-6,8-dimethyl-3,4-dihydro-2H-pyrrolo[1,2-a]pyrazin-1-one], the half-maximal inhibitory concentration (IC50) was less than 1 µM.

Turning to `Cc1c(-c2ccnc(Nc3ccc4c(c3)OCC(=O)N4)n2)c(C)n2c1C(=O)NCC2` [Example I-12, 7-[4-(6,8-Dimethyl-1-oxo-1,2,3,4-tetrahydro-pyrrolo[1,2-a]pyrazin-7-yl)-pyrimidin-2-ylamino]-4H-benzo[1,4]oxazin-3-one], the IC50 is less than 1 µM.

Regarding `CCN(CC)c1ccc(Nc2nccc(-c3c(C)c4n(c3C)CCNC4=O)n2)cc1` [Example I-13, 7-[2-(4-Diethylamino-phenylamino)-pyrimidin-4-yl]-6,8-dimethyl-3,4-dihydro-2H-pyrrolo[1,2-a]pyrazin-1-one], the IC50 is less than 1 µM.

Turning to `Cc1c(-c2ccnc(Nc3ccc(N4CCOCC4)nc3)n2)c(C)n2c1C(=O)NCC2` [Example I-13a, 6,8-Dimethyl-7-[2-(6-morpholin-4-yl-pyridin-3-ylamino)-pyrimidin-4-yl]-3,4-dihydro-2H-pyrrolo[1,2-a]pyrazin-1-one], the IC50 was less than 1 µM.

Consider `COc1ccc(Nc2nccc(-c3c(C)c4n(c3C)CCNC4=O)n2)cn1` [Example I-13b, 7-[2-(6-Methoxy-pyridin-3-ylamino)-pyrimidin-4-yl]-6,8-dimethyl-3,4-dihydro-2H-pyrrolo[1,2-a]pyrazin-1-one], for which the half-inhibitory concentration (IC50) was less than 1 µM.

Turning to `Cc1c(-c2ccnc(Nc3ccc(Br)cc3)n2)c(C)n2c1C(=O)NCC2` [Example I-14, 7-[2-(4-Bromo-phenylamino)-pyrimidin-4-yl]-6,8-dimethyl-3,4-dihydro-2H-pyrrolo[1,2-a]pyrazin-1-one], the IC50 was less than 1 µM.

For `Cc1c(-c2ccnc(Nc3cccc(S(=O)(=O)CCO)c3)n2)c(C)n2c1C(=O)NCC2` [Example I-15, 7-{2-[3-(2-Hydroxy-ethanesulfonyl)-phenylamino]-pyrimidin-4-yl}-6,8-dimethyl-3,4-dihydro-2H-pyrrolo[1,2-a]pyrazin-1-one], the IC50 is less than 1 µM.

As for `Cc1c(-c2ccnc(Nc3ccc4sc(C(=O)O)cc4c3)n2)c(C)n2c1C(=O)NCC2` [Example I-16, 5-[4-(6,8-Dimethyl-1-oxo-1,2,3,4-tetrahydro-pyrrolo[1,2-a]pyrazin-7-yl)-pyrimidin-2-ylamino]-benzo[b]thiophene-2-carboxylic acid], the half-inhibitory concentration (IC50) was less than 0.1 µM.

Consider `Cc1c(-c2ccnc(Nc3ccc(O)cc3)n2)c(C)n2c1C(=O)NCC2` [Example I-17, 7-[2-(4-Hydroxy-phenylamino)-pyrimidin-4-yl]-6,8-dimethyl-3,4-dihydro-2H-pyrrolo[1,2-a]pyrazin-1-one], for which the 50% inhibitory concentration (IC50) was less than 1 µM.

In the case of `COc1cc(Nc2nccc(-c3c(C)c4n(c3C)CCNC4=O)n2)ccc1S(=O)(=O)NC(C)C` [Example I-18, 4-[4-(6,8-Dimethyl-1-oxo-1,2,3,4-tetrahydro-pyrrolo[1,2-a]pyrazin-7-yl)-pyrimidin-2-ylamino]-N-isopropyl-2-methoxy-benzenesulfonamide], the IC50 is less than 0.1 µM.

On to `Cc1c(-c2ccnc(Nc3ccc(S(=O)(=O)NC(C)C)cc3)n2)c(C)n2c1C(=O)NCC2` [Example I-19, 4-[4-(6,8-Dimethyl-1-oxo-1,2,3,4-tetrahydro-pyrrolo[1,2-a]pyrazin-7-yl)-pyrimidin-2-ylamino]-N-isopropyl-benzenesulfonamide], for which the IC50 is less than 1 µM.

On to `Cc1c(-c2ccnc(Nc3ccc(NS(C)(=O)=O)cc3)n2)c(C)n2c1C(=O)NCC2` [Example I-20, N-{4-[4-(6,8-Dimethyl-1-oxo-1,2,3,4-tetrahydro-pyrrolo[1,2-a]pyrazin-7-yl)-pyrimidin-2-ylamino]-phenyl}-methanesulfonamide], for which the half-maximal inhibitory concentration (IC50) was less than 1 µM.

Consider `CCN(CC)CCCNS(=O)(=O)c1ccc(Nc2nccc(-c3c(C)c4n(c3C)CCNC4=O)n2)cc1C` [Example I-21, N-(3-Diethylamino-propyl)-4-[4-(6,8-dimethyl-1-oxo-1,2,3,4-tetrahydro-pyrrolo[1,2-a]pyrazin-7-yl)-pyrimidin-2-ylamino]-2-methyl-benzenesulfonamide], for which the IC50 is less than 10 µM.

Consider `COc1cc(Nc2nccc(-c3c(C)c4n(c3C)CCNC4=O)n2)ccc1S(=O)(=O)N1CCCCC1` [Example I-22, 7-{2-[3-Methoxy-4-(piperidine-1-sulfonyl)-phenylamino]-pyrimidin-4-yl}-6,8-dimethyl-3,4-dihydro-2H-pyrrolo[1,2-a]pyrazin-1-one], for which the IC50 is less than 1 µM.

Consider `COc1cc(Nc2nccc(-c3c(C)c4n(c3C)CCNC4=O)n2)ccc1S(=O)(=O)NCCN(C)C` [Example I-23, N-(2-Dimethylamino-ethyl)-4-[4-(6,8-dimethyl-1-oxo-1,2,3,4-tetrahydro-pyrrolo[1,2-a]pyrazin-7-yl)-pyrimidin-2-ylamino]-2-methoxy-benzenesulfonamide], for which the IC50 was less than 1 µM.

In the case of `COc1cc(Nc2nccc(-c3c(C)c4n(c3C)CCNC4=O)n2)ccc1S(=O)(=O)N1CCN(C)CC1` [Example I-24, 7-{2-[3-Methoxy-4-(4-methyl-piperazine-1-sulfonyl)-phenylamino]-pyrimidin-4-yl}-6,8-dimethyl-3,4-dihydro-2H-pyrrolo[1,2-a]pyrazin-1-one], the concentration for half-maximal inhibition (IC50) was less than 1 µM.

Take `Cc1c(-c2ccnc(Nc3cccc(C(=O)O)c3)n2)c(C)n2c1C(=O)NCC2` [Example I-25, [4-(6,8-Dimethyl-1-oxo-1,2,3,4-tetrahydro-pyrrolo[1,2-a]pyrazin-7-yl)-pyrimidin-2-ylamino]-benzoic acid]: the IC50 is less than 1 µM.

In the case of `Cc1c(-c2ccnc(Nc3ccc(C(=O)O)cc3)n2)c(C)n2c1C(=O)NCC2` [Example I-26, 4-[4-(6,8-Dimethyl-1-oxo-1,2,3,4-tetrahydro-pyrrolo[1,2-a]pyrazin-7-yl)-pyrimidin-2-ylamino]-benzoic acid], the 50% inhibitory concentration (IC50) is less than 0.1 µM.

As to `COc1cc(C(=O)O)ccc1Nc1nccc(-c2c(C)c3n(c2C)CCNC3=O)n1` [Example I-27, 4-[4-(6,8-Dimethyl-1-oxo-1,2,3,4-tetrahydro-pyrrolo[1,2-a]pyrazin-7-yl)-pyrimidin-2-ylamino]-3-methoxy-benzoic acid], the IC50 was less than 1 µM.

Turning to `COc1ccc(Nc2nccc(-c3c(C)c4n(c3C)CCNC4=O)n2)cc1O` [Example I-28, 7-[2-(3-Hydroxy-4-methoxy-phenylamino)-pyrimidin-4-yl]-6,8-dimethyl-3,4-dihydro-2H-pyrrolo[1,2-a]pyrazin-1-one], the 50% inhibitory concentration (IC50) was less than 1 µM.

With `Cc1c(-c2ccnc(Nc3ccc4c(c3)OCO4)n2)c(C)n2c1C(=O)NCC2` [Example I-29, 7-[2-(Benzo-[1,3]dioxol-5-ylamino)-pyrimidin-4-yl]-6,8-dimethyl-3,4-dihydro-2H-pyrrolo[1,2-a]pyrazin-1-one], the 50% inhibitory concentration (IC50) was less than 1 µM.
